{
  "source": "PubChem BioAssay AID504356",
  "about": "(Broad Institute, 2011)",
  "key": {"[1]": {"assay": "caspase activation in TSA-primed A1-expressing MEWO, dose response, orthogonal assay for A1 inhibitor project, cell-based, Trichostatin A primed, luminescence, set 2 (AID 504356)", "settings": "MEWO A1-expressing, TSA primed, caspase-Glo luminescence, 3 h, active compounds read high"}, "[2]": {"test_system": "MEWO A1-expressing, TSA primed, caspase-Glo luminescence, 3 h", "assay": "caspase activation in TSA-primed A1-expressing MEWO, dose response, orthogonal assay for A1 inhibitor project, cell-based, Trichostatin A primed, luminescence, set 2 (AID 504356)"}},
  "note": "The source made the active and inactive calls.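 Rule for the calls: active = curve reaching 10% of positive control caspase signal at or below the top valid tested dose; inactive = opposite-direction activity, or no crossing across tested range.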",
  "data": [
    {"smiles": "Cc1ccc(Nc2c([N+](=O)[O-])c(=O)n(C)c3ccccc23)cc1", "values": [
      {"measurement": "max caspase activation", "setting": "[1]; at 0.5 µM", "result": "1.48% (inactive)"}
    ]},
    {"smiles": "O=c1oc2ccccc2c(Nc2cc(Cl)cc(Cl)c2)c1[N+](=O)[O-]", "values": [
      {"measurement": "max caspase activation", "setting": "[1]; at 0.12 µM", "result": "2.71% (inactive)"}
    ]},
    {"smiles": "O=[N+]([O-])c1cnc2ccccc2c1Sc1ccccc1", "values": [
      {"measurement": "AC10", "setting": "[2]", "result": "> 30 µM (inactive)"}
    ]},
    {"smiles": "Cc1ccc(Sc2cc(=O)n(C)c3ccccc23)cc1", "values": [
      {"measurement": "max caspase activation", "setting": "[1]; at 30 µM", "result": "-5.85% (inactive)"}
    ]},
    {"smiles": "O=c1oc2ccccc2c(Sc2ccccc2)c1[N+](=O)[O-]", "values": [
      {"measurement": "max caspase activation", "setting": "[1]; at 30 µM", "result": "-5.41% (inactive)"}
    ]},
    {"smiles": "CN1C(=O)C(C)(C)N(Cc2ccccc2)c2ccccc21", "values": [
      {"measurement": "max caspase activation", "setting": "[1]; at 16 µM", "result": "-0.643% (inactive)"}
    ]},
    {"smiles": "O=c1oc2ccccc2c(Cl)c1[N+](=O)[O-]", "values": [
      {"measurement": "max caspase activation", "setting": "[1]; at 30 µM", "result": "-5.13% (inactive)"}
    ]},
    {"smiles": "Cn1c(=O)c([N+](=O)[O-])c(Cl)c2ccccc21", "values": [
      {"measurement": "max caspase activation", "setting": "[1]; at 8 µM", "result": "9.18% (inactive)"}
    ]},
    {"smiles": "Cc1ccc(Sc2c([N+](=O)[O-])cnc3ccccc23)cc1", "values": [
      {"measurement": "AC10", "setting": "[2]", "result": 24.9, "unit": "µM"}
    ]},
    {"smiles": "Cn1c(=O)c([N+](=O)[O-])c(-n2cnc3ccccc32)c2ccccc21", "values": [
      {"measurement": "AC10", "setting": "[2]", "result": "> 30 µM (inactive)"}
    ]},
    {"smiles": "O=c1oc2ccccc2c(N2CCCCC2)c1[N+](=O)[O-]", "values": [
      {"measurement": "max caspase activation", "setting": "[1]; at 0.235 µM", "result": "-1.97% (inactive)"}
    ]},
    {"smiles": "Cn1c(=O)c([N+](=O)[O-])c(Nc2ccc(Cl)cc2)c2ccccc21", "values": [
      {"measurement": "max caspase activation", "setting": "[1]; at 0.235 µM", "result": "3.04% (inactive)"}
    ]},
    {"smiles": "O=C(Oc1cccc(/C=N/Nc2nc(Nc3ccccc3)nc(N3CCOCC3)n2)c1)c1ccco1", "values": [
      {"measurement": "max caspase activation", "setting": "[1]; at 3.8 µM", "result": "2.46% (inactive)"}
    ]},
    {"smiles": "Cc1ccc(Sc2c([N+](=O)[O-])c(=O)oc3ccccc23)cc1", "values": [
      {"measurement": "max caspase activation", "setting": "[1]; at 16 µM", "result": "-4.17% (inactive)"}
    ]},
    {"smiles": "CCOCCCNc1c([N+](=O)[O-])c(=O)n(C)c2ccccc12", "values": [
      {"measurement": "max caspase activation", "setting": "[1]; at 8 µM", "result": "1.97% (inactive)"}
    ]},
    {"smiles": "Cc1ccc(Nc2c([N+](=O)[O-])c(=O)oc3ccccc23)cc1", "values": [
      {"measurement": "max caspase activation", "setting": "[1]; at 16 µM", "result": "1.85% (inactive)"}
    ]},
    {"smiles": "Cc1ccc(Sc2c([N+](=O)[O-])c(=O)n(C)c3ccccc23)cc1", "values": [
      {"measurement": "AC10", "setting": "[2]", "result": "> 30 µM (inactive)"}
    ]},
    {"smiles": "Cn1c(=O)c([N+](=O)[O-])c(Oc2ccccc2)c2ccccc21", "values": [
      {"measurement": "max caspase activation", "setting": "[1]; at 30 µM", "result": "2.08% (inactive)"}
    ]},
    {"smiles": "CCOC(=O)N1CCN(c2c([N+](=O)[O-])c(=O)n(C)c3ccccc23)CC1", "values": [
      {"measurement": "max caspase activation", "setting": "[1]; at 8 µM", "result": "0.764% (inactive)"}
    ]},
    {"smiles": "C/C1=C/C(=O)O[C@@H]2C[C@@H](CC[C@H](C)/C=C\\CC1)O[C@@](O)(C1CSC(=O)N1)C2", "note": "(stereo partly specified)", "values": [
      {"measurement": "max caspase activation", "setting": "[1]; at 30 µM", "result": "2.64% (inactive)"}
    ]},
    {"smiles": "CCSc1c([N+](=O)[O-])c(=O)oc2ccccc12", "values": [
      {"measurement": "max caspase activation", "setting": "[1]; at 8 µM", "result": "2.46% (inactive)"}
    ]}
  ]
}
